Molecules are shown by their SMILES. Where two headings read alike, the source gives them in different places.

The source of these data is patent publication US9051240B2, “Substituted 2-[2-(phenyl) ethylamino] alkaneamide derivatives and their use as sodium and/or calcium channel modulators” (Newron Pharmaceuticals S.P.A., priority 2007, dated 2015).

One experiment relates to SNL rats. As to the kind of experiment: Spinal nerve ligation model of neuropathic pain (thermal hyperalgesia). It counts as in vivo. Conditions: Rattus norvegicus, po, orally administered.
In the next experiment the test system is mice. As to the kind of experiment: Acetic acid-induced visceral pain model in mice. It counts as in vivo. Conditions: 20 mg/Kg p.o. The source says: The acetic acid-induced visceral pain model is widely used in experimental research to produce abdominal contractions (Korster R et al., Fed. Pro. (1959) 18: 412; Friese N et al., Life Sci. (1997) 60: 625-634) The model consists of intraperitoneal (i.p.) injection of an irritant that induces a syndrome called ‘writhing’, which consists of contractions of the abdomen, twisting and turning of the trunk, arching of the back and extension of the hind limbs.
Animals and procedure: Male CD1 mice weighing 25-33 g were used. Each treated group was allowed 30 min to habituate to laboratory surroundings in individual polypropylene transparent boxes. The visceral pain was scored by counting the number of writhes for 10 min after i.p. injection of 0.6% acetic acid (10 ml/kg of body weight). The number of writhes after acetic acid administration were evaluated. Both complete body stretching (complete writhe) or partial stretching with a clear contracting of the abdomen (partial writhe) were counted.
Separate groups of 10 mice each were administered orally with vehicle (10 ml/kg), or different doses of the tested compound dissolved in vehicle (10 ml/kg), 5 min before acetic acid injection. Data are expressed as the mean number of writhes during the 10 min observation period.

The target in the next experiment is MAO-B (Rattus norvegicus (Rat), UniProt P19643). The experiment can be described thus: In vitro MAO-B enzyme activity assay (radioenzymatic, rat brain mitochondria). It counts as biochemical. The conditions noted are these: 14C-PEA 0.5 μM. As for the experimental part:
Male Wistar rats (Harlan, Italy weighing 175-200 g) were sacrificed under light anaesthesia and brains were rapidly removed and homogenized in 8 volumes of ice-cold 0.32 M sucrose buffer containing 0.1 M EDTA, pH 7.4. The crude homogenate was centrifuged at 2220 rpm for 10 minutes and the supernatant recovered. The pellet was homogenized and centrifuged again. The two supernatants were pooled and centrifuged at 9250 rpm for 10 minutes at +4° C. The pellet was resuspended in fresh buffer and centrifuged at 11250 rpm for 10 minutes at +4° C. The resulting pellet was stored at −80° C. The enzyme activity was assessed with a radioenzymatic assay using the substrate ^14C-phenylethylamine (PEA) specific for MAO-B. The mitochondrial pellet (500 μg protein) was resuspended in 0.1 M phosphate buffer (pH 7.4). 200 μl of the suspension were added to a 50 μl solution of the test compound or buffer, and incubated for 30 min at 37° C. (preincubation) then the substrate (50 μl) was added. The incubation was carried out for 10 minutes at 37° C. (^14C-PEA, 0.5 μM). The reaction was stopped by adding 0.2 ml of perchloric acid. After centrifugation, the deaminated metabolites were extracted with 3 ml of toluene and the radioactive organic phase containing the neutral and/or acidic metabolites formed as a result of MAO-B activity was measured by liquid scintillation spectrometry at 90% efficiency. The MAO-B activity was expressed as nmoles of substrate transformed/mg protein/min.

The test system of experiment [1] is Na+ currents in ND7/23 cells (TTX-s). The experiment can be described thus: Patch clamp evaluation of Na+ currents blockade in ND7/23 cell line. It counts as cell-based, rat. As to the method:
ND7/23 (ECACC No 92090903 from SIGMA), is a hybrid cell line derived from a neonatal rat DRG fused with the mouse neuroblastoma N18Tg2 (Wood et al., Proc. Biol. Sci., 1990 September, 241(1302), 187-194).
The molecular identity of the channels responsible for the TTX-s conductance is unknown but it is presumed that TTX-s conductance arises from the activity of a mixed population of sodium channels.
Cells are routinously maintained in DMEM with 10% of FBS, 4 mM glutamine, 1 mM sodium piruvate. The day before the patch clamp experiment cells are detached and seeded at 100,000 cells/polylysine-coated 35 mm Petri dish.
Experiments on ND7/23 cells were carried out using standard whole cell patch clamp methods (Hamill et al., Pfugers Arch., 1981 August, 391(12), 85-100), as described in previous section.
To test the effect of compounds on sodium currents in ND7/23 cells, holding membrane potential was set at −90 mV, then a two step protocol was used to determine the voltage dependence of the block. Sodium currents were activated by a 30 ms step pulse to 0 mV (test pulse) from a 2000 ms preconditioning potential of −110 mV (resting condition) and a potential of ˜−70 mV (half maximal steady-state condition).
Tonic block of resting and depolarized currents at a given drug concentration was calculated as the difference between the peak Na^+ current in the control external bath solution and peak currents with the test substance divided by control peak.
Drug concentration-inhibition curves were obtained by plotting tonic blocks in the resting and depolarized condition, versus drug concentrations. Dose-response curves were fitted to the tonic block data, according to the logistic equation: y=A2+(A1−A2)/[1+(x/IC50)p]. A1 and A2 are fixed values of 0 and 1 corresponding to 0 and 100% current inhibition, x is the drug concentration, IC50 is the drug concentration resulting in 50% current inhibition and p is the corresponding slope factor.
The apparent affinity of drug for the inactivated state (Ki) was calculated according to the equation 1/Kdep=h/Kr+(1−h)/Ki where Kr is the affinity of drug for the resting/closed state; Kdep is the IC50 in the depolarized condition, h and (1−h) are the fractions of channels present at the rest. and dep. potentials, respectively.
Control bath solution contained (mM): NaCl 80, Choline HCl 40, CaCl2 1.3, MgCl2 2, KCl 2, CdCl2 0.4, NiCl2 0.3, TEACl 20, Hepes 10, Glucose 10.
Internal pipette solution consisted of (mM): CsF 65, CsCl 65, NaCl 10, CaCl2 1.3, MgCl2 2, Hepes 10, EGTA 10, MgATP 1.
Compounds were dissolved as stock solutions (20 mM) in DMSO. They were diluted to the final concentrations in the external solution.
A general note: The patch-clamp technique gives a direct electrical read-out from membranes.

The test system of the next experiment is L-type calcium channels. The experiment can be described thus: Calcium channel influx assay (fluorescence, AtT20 cell line). Conditions: AtT20 cells, 100 mM KCl depolarization; read-out: Ca++ influx IC50. In kind it is cell-based, mouse. As for the experimental part: AtT20/D16v-F2 mouse pituitary tumour cell line preferentially expresses L-type calcium channels.
AtT20 cells were grown in DMEM with 10% of FBS, 4 mM glutamine. The cells were seeded at 200,000 cells/well on 96 poly-L-lysine-coated plates and further incubated for 18-24 h, before use.
The Ca^++ Kit Assay (Molecular Devices), which is based on a fluorescent calcium indicator to detect the calcium influx determined by depolarizing conditions, was used for the assay.
Cells were incubated with the calcium dye loading for 30 min at 37° C. Then, ω-conotoxin alone (1 μM) or in presence of nifedipine (as reference standard) or test compound were added for further 15 min.
The fluorescence (excitation: 485-emission: 535 nm wavelength) was measured before and after (30-40 sec) the automated injection of 100 mM KCl depolarizing solution using a Victor plate reader (Perkin Elmer).
The inhibition curves were calculated from 5 concentrations, each in triplicate, and the IC50 determined using linear regression analysis.

MAO-B, sequence (P19643 whole entry): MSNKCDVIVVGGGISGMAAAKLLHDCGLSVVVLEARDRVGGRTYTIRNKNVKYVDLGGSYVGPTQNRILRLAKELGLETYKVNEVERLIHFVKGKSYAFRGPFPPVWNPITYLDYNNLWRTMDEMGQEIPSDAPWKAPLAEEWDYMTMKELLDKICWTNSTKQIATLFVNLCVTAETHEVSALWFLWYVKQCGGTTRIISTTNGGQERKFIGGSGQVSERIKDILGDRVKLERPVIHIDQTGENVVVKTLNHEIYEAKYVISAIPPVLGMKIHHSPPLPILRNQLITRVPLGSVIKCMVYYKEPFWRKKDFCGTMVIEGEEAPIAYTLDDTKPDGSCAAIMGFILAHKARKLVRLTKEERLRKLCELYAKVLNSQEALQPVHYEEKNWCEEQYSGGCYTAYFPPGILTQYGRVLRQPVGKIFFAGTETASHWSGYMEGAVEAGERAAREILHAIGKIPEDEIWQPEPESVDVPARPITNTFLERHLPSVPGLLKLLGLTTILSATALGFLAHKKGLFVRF

Usually ED50 stands for the dose that gives a 50% effect, or the effect in half of the subjects. Low values mean greater potency, high ones weaker potency. A word on the IC50: it is the concentration that inhibits the measured activity by half. In the experiment on SNL rats, `CCCCOc1cccc(CCNCC(=O)N(C)C)c1.Cl` [2-[2-(3-Butoxyphenyl)-ethylamino]-N,N-dimethylacetamide hydrochloride] came in with an ED50 of 10.6 mg/kg. Moreover, the “number of writhes, significance vs. vehicle” value in the experiment with mice was “p<0.01 vs. vehicle”. Also, the IC50 at MAO-B is 231 µM.

As for `C[C@H](NCc1ccc(OCc2ccccc2F)cc1)C(N)=O` [ralfinamide, (S)-(+)-2-[4-(2-fluorobenzyloxy)-benzylamino]-propanamide, reference compound], the Ki in experiment [1] (calculated from Kr and Kdep, read-out: Ki (apparent affinity for the inactivated state)) was 8.3 µM. Besides, the IC50 in experiment [1] (read-out: IC50 depolarized, preconditioning potential ~-70 mV) turned out to be 15 µM; in experiment [1] (read-out: IC50 resting (Kr), preconditioning potential -110 mV) it was 149 µM; with L-type calcium channels, 26 µM; on MAO-B, 0.2 µM.
